We go through seven cell lines from the supplement of paper PMC10307832.

Experiment in all cases: relative viability (nuclei count vs DMSO), 5 days (fraction); higher = more cells survive
Compound in the assay “Avagacestat + Trametinib”: NC(=O)[C@@H](CCC(F)(F)F)N(Cc1ccc(-c2ncon2)cc1F)S(=O)(=O)c1ccc(Cl)cc1 [Avagacestat] + CC(=O)Nc1cccc(-n2c(=O)n(C3CC3)c(=O)c3c(Nc4ccc(I)cc4F)n(C)c(=O)c(C)c32)c1 [Trametinib] (partner 0.02 µM)
The essentials:
(§1)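 Lung cancer cell lines in 1536-well plates were dosed by pin tool the day after seeding, either with one drug alone or with a fixed anchor-drug dose plus five library-drug doses (not always all listed) in √10 steps. After 5 days, cells were fixed and their nuclei stained in one step (final 0.05% Triton X-100, 1% formaldehyde, 1 ug/ml Hoechst), then counted on 4× images. Relative viability is the nuclei count in treated wells divided by that in vehicle wells. Values are medians of duplicate plates.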

Compound in the assay “Avagacestat + Navitoclax”: NC(=O)[C@@H](CCC(F)(F)F)N(Cc1ccc(-c2ncon2)cc1F)S(=O)(=O)c1ccc(Cl)cc1 [Avagacestat] + CC1(C)CCC(c2ccc(Cl)cc2)=C(CN2CCN(c3ccc(C(=O)NS(=O)(=O)c4ccc(N[C@H](CCN5CCOCC5)CSc5ccccc5)c(S(=O)(=O)C(F)(F)F)c4)cc3)CC2)C1 [Navitoclax] (partner 0.5 µM)
The essentials:
as §1

Compound in the assay “Avagacestat + Phenformin”: NC(=O)[C@@H](CCC(F)(F)F)N(Cc1ccc(-c2ncon2)cc1F)S(=O)(=O)c1ccc(Cl)cc1 [Avagacestat] + N=C(N)NC(=N)NCCc1ccccc1 [Phenformin] (partner 250 µM)
The essentials:
as §1

Compound in the assay “Avagacestat + Pemetrexed”: NC(=O)[C@@H](CCC(F)(F)F)N(Cc1ccc(-c2ncon2)cc1F)S(=O)(=O)c1ccc(Cl)cc1 [Avagacestat] + Nc1nc2[nH]cc(CCc3ccc(C(=O)N[C@@H](CCC(=O)O)C(=O)O)cc3)c2c(=O)[nH]1 [Pemetrexed] (partner 0.2 µM)
The essentials:
as §1

Take NCI-H441: the relative viability with Avagacestat + Trametinib (first compound 0.08 µM) is 0.52; in the assay with Avagacestat + Trametinib (first compound 0.253 µM), 0.462; with Avagacestat + Trametinib (first compound 0.8 µM) it was 0.449; with Avagacestat + Trametinib (first compound 2.53 µM), 0.515; with Avagacestat + Trametinib (first compound 8 µM), 0.411; in the assay with Avagacestat + Navitoclax (first compound 0.08 µM), 0.504. Further, the relative viability in the assay with Avagacestat + Navitoclax (first compound 0.253 µM) stood at 0.491; with Avagacestat + Navitoclax (first compound 0.8 µM), 1.01; with Avagacestat + Navitoclax (first compound 2.53 µM), 0.49; with Avagacestat + Navitoclax (first compound 8 µM) it was 0.668; with Avagacestat + Phenformin (first compound 0.08 µM) it was 1.23; in the assay with Avagacestat + Phenformin (first compound 0.253 µM) it was 0.957. Further, the relative viability was determined as 1.02 with Avagacestat + Phenformin (first compound 0.8 µM); 0.917 with Avagacestat + Phenformin (first compound 2.53 µM); 0.676 in the assay with Avagacestat + Phenformin (first compound 8 µM); 0.269 with Avagacestat + Pemetrexed (first compound 0.08 µM); 0.252 in the assay with Avagacestat + Pemetrexed (first compound 0.253 µM); 0.272 with Avagacestat + Pemetrexed (first compound 0.8 µM). The relative viability amounted to 0.271 with Avagacestat + Pemetrexed (first compound 2.53 µM) and 0.298 with Avagacestat + Pemetrexed (first compound 8 µM).
For the cell line HCC-44, the relative viability came out at 1.05 in the assay with Avagacestat + Trametinib (first compound 0.08 µM); 1.02 with Avagacestat + Trametinib (first compound 0.253 µM); 1.05 with Avagacestat + Trametinib (first compound 0.8 µM); 0.98 with Avagacestat + Trametinib (first compound 2.53 µM); 1.03 in the assay with Avagacestat + Trametinib (first compound 8 µM); 1.14 in the assay with Avagacestat + Navitoclax (first compound 0.08 µM). In addition, the relative viability was found to be 1.13 with Avagacestat + Navitoclax (first compound 0.253 µM); 0.948 in the assay with Avagacestat + Navitoclax (first compound 0.8 µM); 0.76 with Avagacestat + Navitoclax (first compound 2.53 µM); 0.874 with Avagacestat + Navitoclax (first compound 8 µM); 0.167 with Avagacestat + Phenformin (first compound 0.08 µM); 0.171 with Avagacestat + Phenformin (first compound 0.253 µM). Besides, the relative viability stood at 0.198 in the assay with Avagacestat + Phenformin (first compound 0.8 µM); 0.21 with Avagacestat + Phenformin (first compound 2.53 µM); 0.195 with Avagacestat + Phenformin (first compound 8 µM); 0.733 in the assay with Avagacestat + Pemetrexed (first compound 0.08 µM); 0.68 with Avagacestat + Pemetrexed (first compound 0.253 µM); 0.706 with Avagacestat + Pemetrexed (first compound 0.8 µM). Besides, the relative viability in the assay with Avagacestat + Pemetrexed (first compound 2.53 µM) worked out at 0.66; in the assay with Avagacestat + Pemetrexed (first compound 8 µM), 0.639.
Consider NCI-H1993, for which the relative viability in the assay with Avagacestat + Trametinib (first compound 0.08 µM) came out at 0.576; in the assay with Avagacestat + Trametinib (first compound 0.253 µM), 0.316; with Avagacestat + Trametinib (first compound 0.8 µM) it was 0.629; with Avagacestat + Trametinib (first compound 2.53 µM) it was 0.504; with Avagacestat + Trametinib (first compound 8 µM) it was 0.577; with Avagacestat + Navitoclax (first compound 0.08 µM), 1.08. In addition, the relative viability was determined as 0.995 in the assay with Avagacestat + Navitoclax (first compound 0.253 µM); 1.09 with Avagacestat + Navitoclax (first compound 0.8 µM); 0.905 with Avagacestat + Navitoclax (first compound 2.53 µM); 1.04 with Avagacestat + Navitoclax (first compound 8 µM); 0.548 with Avagacestat + Phenformin (first compound 0.08 µM); 0.531 with Avagacestat + Phenformin (first compound 0.253 µM). In addition, the relative viability with Avagacestat + Phenformin (first compound 0.8 µM) was determined as 0.473; with Avagacestat + Phenformin (first compound 2.53 µM) it was 0.451; with Avagacestat + Phenformin (first compound 8 µM), 0.59; with Avagacestat + Pemetrexed (first compound 0.08 µM), 0.826; with Avagacestat + Pemetrexed (first compound 0.253 µM), 0.542; with Avagacestat + Pemetrexed (first compound 0.8 µM), 0.686. For the same cell line, the relative viability with Avagacestat + Pemetrexed (first compound 2.53 µM) came out at 0.684; with Avagacestat + Pemetrexed (first compound 8 µM) it was 0.504.
Regarding NCI-H2023, the relative viability in the assay with Avagacestat + Trametinib (first compound 0.08 µM) turned out to be 0.681; with Avagacestat + Trametinib (first compound 0.253 µM), 0.59; with Avagacestat + Trametinib (first compound 0.8 µM), 0.569; with Avagacestat + Trametinib (first compound 2.53 µM), 0.522; with Avagacestat + Trametinib (first compound 8 µM), 0.449; with Avagacestat + Navitoclax (first compound 0.08 µM), 1.14. Also, the relative viability with Avagacestat + Navitoclax (first compound 0.253 µM) was found to be 1.28; with Avagacestat + Navitoclax (first compound 0.8 µM) it was 1.12; with Avagacestat + Navitoclax (first compound 2.53 µM) it was 0.834; with Avagacestat + Navitoclax (first compound 8 µM), 0.894; with Avagacestat + Phenformin (first compound 0.08 µM), 0.474; with Avagacestat + Phenformin (first compound 0.253 µM) it was 0.476. For the same cell line, the relative viability with Avagacestat + Phenformin (first compound 0.8 µM) is 0.453; with Avagacestat + Phenformin (first compound 2.53 µM) it was 0.35; with Avagacestat + Phenformin (first compound 8 µM) it was 0.368; with Avagacestat + Pemetrexed (first compound 0.08 µM) it was 0.322; in the assay with Avagacestat + Pemetrexed (first compound 0.253 µM), 0.221; with Avagacestat + Pemetrexed (first compound 0.8 µM) it was 0.302. For the same cell line, the relative viability stood at 0.257 with Avagacestat + Pemetrexed (first compound 2.53 µM) and 0.221 with Avagacestat + Pemetrexed (first compound 8 µM).
On to NCI-H1666, for which the relative viability was 1.29 with Avagacestat + Trametinib (first compound 0.08 µM); 1.04 with Avagacestat + Trametinib (first compound 0.253 µM); 1.02 with Avagacestat + Trametinib (first compound 0.8 µM); 0.991 in the assay with Avagacestat + Trametinib (first compound 2.53 µM); 0.748 with Avagacestat + Trametinib (first compound 8 µM); 1.15 with Avagacestat + Navitoclax (first compound 0.08 µM). The relative viability with Avagacestat + Navitoclax (first compound 0.253 µM) came out at 1.11; in the assay with Avagacestat + Navitoclax (first compound 0.8 µM), 1.17; with Avagacestat + Navitoclax (first compound 2.53 µM), 0.955; with Avagacestat + Navitoclax (first compound 8 µM), 1.02; with Avagacestat + Phenformin (first compound 0.08 µM) it was 0.686; with Avagacestat + Phenformin (first compound 0.253 µM), 0.639. Moreover, the relative viability with Avagacestat + Phenformin (first compound 0.8 µM) was determined as 0.619; with Avagacestat + Phenformin (first compound 2.53 µM) it was 0.603; with Avagacestat + Phenformin (first compound 8 µM), 0.603; with Avagacestat + Pemetrexed (first compound 0.08 µM) it was 0.938; in the assay with Avagacestat + Pemetrexed (first compound 0.253 µM) it was 0.871; with Avagacestat + Pemetrexed (first compound 0.8 µM), 0.877. Moreover, the relative viability turned out to be 0.822 with Avagacestat + Pemetrexed (first compound 2.53 µM) and 0.889 in the assay with Avagacestat + Pemetrexed (first compound 8 µM).
LCLC-97TM1: the relative viability with Avagacestat + Trametinib (first compound 0.08 µM) is 0.241; in the assay with Avagacestat + Trametinib (first compound 0.253 µM), 0.251; with Avagacestat + Trametinib (first compound 0.8 µM), 0.266; with Avagacestat + Trametinib (first compound 2.53 µM), 0.174; in the assay with Avagacestat + Trametinib (first compound 8 µM), 0.22; in the assay with Avagacestat + Navitoclax (first compound 0.08 µM) it was 0.467. Moreover, the relative viability was 0.409 with Avagacestat + Navitoclax (first compound 0.253 µM); 0.39 with Avagacestat + Navitoclax (first compound 0.8 µM); 0.128 with Avagacestat + Navitoclax (first compound 2.53 µM); 0.341 with Avagacestat + Navitoclax (first compound 8 µM); 0.526 with Avagacestat + Phenformin (first compound 0.08 µM); 0.472 with Avagacestat + Phenformin (first compound 0.253 µM). Besides, the relative viability was determined as 0.487 in the assay with Avagacestat + Phenformin (first compound 0.8 µM); 0.481 in the assay with Avagacestat + Phenformin (first compound 2.53 µM); 0.468 with Avagacestat + Phenformin (first compound 8 µM); 0.177 in the assay with Avagacestat + Pemetrexed (first compound 0.08 µM); 0.177 with Avagacestat + Pemetrexed (first compound 0.253 µM); 0.159 in the assay with Avagacestat + Pemetrexed (first compound 0.8 µM). Further, the relative viability with Avagacestat + Pemetrexed (first compound 2.53 µM) worked out at 0.166; in the assay with Avagacestat + Pemetrexed (first compound 8 µM), 0.146.
As for NCI-H1755, the relative viability in the assay with Avagacestat + Trametinib (first compound 0.08 µM) worked out at 0.837; with Avagacestat + Trametinib (first compound 0.253 µM), 0.884; with Avagacestat + Trametinib (first compound 0.8 µM), 0.8; with Avagacestat + Trametinib (first compound 2.53 µM), 0.777; with Avagacestat + Trametinib (first compound 8 µM) it was 0.729; in the assay with Avagacestat + Navitoclax (first compound 0.08 µM) it was 1.08. The relative viability was 1.21 in the assay with Avagacestat + Navitoclax (first compound 0.253 µM); 1.09 with Avagacestat + Navitoclax (first compound 0.8 µM); 0.959 in the assay with Avagacestat + Navitoclax (first compound 2.53 µM); 0.943 with Avagacestat + Navitoclax (first compound 8 µM); 0.714 in the assay with Avagacestat + Phenformin (first compound 0.08 µM); 0.652 with Avagacestat + Phenformin (first compound 0.253 µM). In addition, the relative viability with Avagacestat + Phenformin (first compound 0.8 µM) was 0.655; with Avagacestat + Phenformin (first compound 2.53 µM), 0.623; in the assay with Avagacestat + Phenformin (first compound 8 µM), 0.577; in the assay with Avagacestat + Pemetrexed (first compound 0.08 µM), 0.541; in the assay with Avagacestat + Pemetrexed (first compound 0.253 µM) it was 0.478; with Avagacestat + Pemetrexed (first compound 0.8 µM), 0.383. In addition, the values for the relative viability with Avagacestat + Pemetrexed (first compound 2.53 µM) and with Avagacestat + Pemetrexed (first compound 8 µM) were 0.372 and 0.383, respectively.
